From patent US9175320B2, “Processes for the preparation of (R)-2-(7-4-cyclopentyl-3-(trifluoromethyl)benzyloxy)-1,2,3,4-tetrahydrocyclopenta[B]indol-3-yl)acetic acid and salts thereof” (ARENA PHARMACEUTICALS, INC., priority 2010, dated 2015)

Key:
C57BL/6 mice [1] = assay: MOG-induced experimental autoimmune encephalomyelitis (EAE) in mice; type: in vivo, mouse; conditions: 0.3, 1 and 3 mg/kg orally once a day from day 3 until day 21 (FIG. 4)
BALB/c mice = assay: Mouse Peripheral Lymphocyte Lowering (PLL) assay; type: in vivo; conditions: 1.00 mg/kg oral dose, 5 hours post-dose, male BALB/c mice, vs vehicle (FIG. 1)
Protocol: Animals: Male BALB/c mice (Charles River Laboratories, Wilmington, Mass.) were housed four per cage and maintained in a humidity-controlled (40 to 60%) and temperature-controlled (68 to 72° F.) facility on a 12 h:12 h light/dark cycle (lights on at 6:30 am) with free access to food (Harlan Teklad, Orange, Calif., Rodent Diet 8604) and water. Mice were allowed one week of habituation to the animal facility before testing. PLL Assay: […] Peripheral blood samples were collected at 5 hours post-dose. The mice were anesthetized with isoflurane and blood was collected via cardiac puncture. A complete cell count (CBC), including lymphocyte count, was obtained using a CELL-DYN® 3700 (Abbott Laboratories, Abbott Park, Ill.) instrument. Results are presented in FIG. 1, in which peripheral blood lymphocyte (PBL) count is shown for the 5 hour group.

Sprague-Dawley rats [2] = assay: Cardiac telemetry in the rat (bradycardia assay); type: in vivo; conditions: oral, vehicle PEG400, heart rate measured over a 120 min period, vs vehicle
Protocol: Animals: Male Sprague-Dawley rats (250-300 g at time of surgery) were implanted by Charles River Laboratories (Wilmington, Mass.) with cardiac transmitting devices (Data Sciences PhysioTel C50-PXT) into the peritoneal space, with a pressure-sensing catheter inserted into the descending aorta. Rats are allowed at least one week to recover. Rats were housed in individual cages and maintained in a humidity-controlled (30-70%) and temperature-controlled (20-22° C.) facility on a 12 h:12 h light/dark cycle (lights on at 7:00 am) with free access to food (Harlan-Teklad, Orange, Calif., Rodent Diet 8604) and water. Rats were allowed one week of habituation to the animal facility before testing. Measurement of cardiovascular parameters: The implanted transmitting devices transmitted continuous measurements of blood pressure (systolic, diastolic, mean arterial, pulse), heart rate, body temperature, and motor activity in freely moving conscious animals. […] Telemetry recording occurred over a 21-h period, starting at noon and continuing until 9:00 am the following day. A maximum of eight rats were tested at a time, and the same eight rats were utilized for all treatment groups in a within-subject design. Drug treatment: […] A full study (vehicle+3 doses) required four separate testing sessions, which occur on Mondays-Tuesdays and Thursdays-Fridays. […]

Sprague-Dawley rats [3] = assay: Rat Peripheral Lymphocyte Lowering (PLL) assay; type: in vivo; conditions: 1.00 mg/kg oral dose, 5 hours post-dose, male Sprague-Dawley rats, vs vehicle (FIG. 2)
Protocol: Animals: Male Sprague-Dawley rats (7 weeks of age at start of study) (Charles River Laboratories) were housed two per cage and maintained in a humidity-controlled (40-60%) and temperature-controlled (68-72° F.) facility on a 12 h: 12 h light/dark cycle (lights on at 6:30 am) with free access to food (Harlan Teklad, Orange, Calif., Rodent Diet 8604) and water. Rats were allowed one week of habituation to the animal facility before testing. PLL Assay: […] Peripheral blood samples were collected at 5 hours post-dose. Blood was collected via indwelling catheter. A complete cell count (CBC), including lymphocyte count, was obtained using a CELL-DYN® 3700 (Abbott Laboratories, Abbott Park, Ill.) instrument. Results are presented in FIG. 2, in which peripheral blood lymphocyte (PBL) count is shown for the 5 hour group.

Female Lewis rats = assay: Collagen-induced arthritis rat model; type: in vivo; conditions: 0.3, 1 and 3 mg/kg p.o., q.d., day 0 through day 16 (FIG. 3)
Protocol: Female Lewis rats were used in this study. Acclimated animals were anesthetized with isoflurane and given the first collagen injection (day 0). On day 6, they were anesthetized again for the second collagen injection. Collagen was prepared by making a 4 mg/mL solution in 0.01N acetic acid. Equal volumes of collagen and incomplete Freund's adjuvant were emulsified by hand mixing until a bead of this material held its form when placed in water. Each animal received 300 μL of the mixture each time, spread over 3 subcutaneous sites on the back. Treatment (p.o., q.d., 5 mL/kg dosing volume) began on day 0 and continued through day 16 with vehicle or compounds given at 24 h intervals. Rats were weighed on days 0, 3, 6 and 9 through 17 and caliper measurements of the ankles taken on days 9 through 17.

S1P1 receptor = S1P1 receptor (Homo sapiens (Human), UniProt P21453); assay: HTRF assay for direct cAMP measurement; type: cell-based; conditions: recombinant CHO-K1 cells stably transfected with S1P1
S1P1 receptor, sequence (P21453 whole entry): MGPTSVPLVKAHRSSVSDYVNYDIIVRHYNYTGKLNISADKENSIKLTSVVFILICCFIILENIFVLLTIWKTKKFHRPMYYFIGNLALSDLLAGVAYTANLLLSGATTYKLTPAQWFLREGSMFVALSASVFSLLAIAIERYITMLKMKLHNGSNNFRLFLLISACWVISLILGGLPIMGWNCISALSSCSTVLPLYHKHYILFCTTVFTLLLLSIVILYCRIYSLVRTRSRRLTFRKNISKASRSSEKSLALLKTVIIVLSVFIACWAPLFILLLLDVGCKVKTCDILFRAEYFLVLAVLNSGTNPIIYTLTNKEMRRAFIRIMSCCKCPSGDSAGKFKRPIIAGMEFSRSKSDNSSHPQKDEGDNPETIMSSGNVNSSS
Description: CHO-K1 cells were obtained from ATCC® (Manassas, Va.; Catalog #CCL-61). […] The HTRF® assay has been used to determine EC50 values for S1P1 receptor agonists. Principle of the assay: HTRF® assay kit was purchased from Cisbio-US, Inc. (Bedford, Mass.; Catalog #62AM4PEC). The HTRF® assay supported by the kit is a competitive immunoassay between endogenous cAMP produced by the CHO-K1 cells and tracer cAMP labeled with the dye d2. The tracer binding is visualized by a monoclonal anti-cAMP antibody labeled with Cryptate. The specific signal (i.e., fluorescence resonance energy transfer, FRET) is inversely proportional to the concentration of unlabeled cAMP in the standard or sample. Standard curve: The fluorescence ratio (665 nm/620 nm) of the standards (0.17 to 712 nM cAMP) included in the assay was calculated and used to generate a cAMP standard curve according to the kit manufacturer's instructions. The fluorescence ratio of the samples (test compound or compound buffer) was calculated and used to deduce respective cAMP concentrations by reference to the cAMP standard curve. […] The plate was then further incubated at room temperature for 1 hour, after which the assay plate was read. Assay readout: HTRF® readout was accomplished using a PHERAstar (BMG LABTECH Inc., Durham, N.C.) or EnVision™ (PerkinElmer, Fremont Calif.) microplate reader.

S1P3 receptor = S1P3 receptor (Homo sapiens (Human), UniProt Q99500); conditions: due to agonism of the S1P3 receptor; cited from earlier work
S1P3 receptor, sequence (Q99500 whole entry): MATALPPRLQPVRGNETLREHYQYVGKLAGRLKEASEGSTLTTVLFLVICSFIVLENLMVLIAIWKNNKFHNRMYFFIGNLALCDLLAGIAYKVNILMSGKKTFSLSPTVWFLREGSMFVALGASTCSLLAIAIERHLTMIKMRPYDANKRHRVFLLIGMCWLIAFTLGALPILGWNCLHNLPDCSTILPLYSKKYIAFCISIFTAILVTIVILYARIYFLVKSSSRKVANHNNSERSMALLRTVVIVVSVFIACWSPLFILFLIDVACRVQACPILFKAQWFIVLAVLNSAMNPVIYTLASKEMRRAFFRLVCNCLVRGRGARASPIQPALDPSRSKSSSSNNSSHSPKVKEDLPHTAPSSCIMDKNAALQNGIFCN

[4] = tested on: patients with multiple sclerosis; conditions: Phase II, relapsing-remitting multiple sclerosis; cited from earlier work
[5] = Hale et al. 2004; cited from earlier work
[6] = tested on: dendritic cells infected with Francisella tularensis; conditions: Bar-Haim et al. 2008; cited from earlier work
mice [7] = conditions: murine; cited from earlier work
[8] = short-term high dose; cited from earlier work
C57BL/6 mice [9] = conditions: prophylactic oral administration, 1 mg/kg, three times a week; cited from earlier work
mice [10] = conditions: oral administration to mice; cited from earlier work
mice [11] = conditions: by reducing the number of mature osteoclasts attached to the bone surface; cited from earlier work
[12] = spared nerve injury model; cited from earlier work

O=C(O)C[C@H]1CCc2c1[nH]c1ccc(OCc3ccc(C4CCCC4)c(C(F)(F)F)c3)cc21 [(R)-2-(7-(4-cyclopentyl-3-(trifluoromethyl)benzyloxy)-1,2,3,4-tetrahydrocyclopenta[b]indol-3-yl)acetic acid]
severity of disease symptoms (clinical score) in EAE (C57BL/6 mice [1]): exhibited activity in the mouse EAE assay
peripheral blood lymphocyte (PBL) count lowering (BALB/c mice): exhibited activity for inducing PBL lowering (lymphopenia)
heart rate (bradycardia) (Sprague-Dawley rats [2]): no or substantially no reduction of heart rate
peripheral blood lymphocyte (PBL) count lowering (Sprague-Dawley rats [3]): exhibited activity for inducing PBL lowering (lymphopenia)
mean ankle diameter (Female Lewis rats): exhibited activity for reducing mean ankle diameter
S1P1 receptor agonism (decreased cAMP concentration) (S1P1 receptor): agonist of the S1P1 receptor
EC50 (S1P1 receptor; n = 22): 0.102 nM

CCCCCCCCc1ccc(CCC(N)(CO)CO)cc1 [FTY720]
adverse event in clinical trials (S1P3 receptor): transient asymptomatic bradycardia
MRI lesions and clinical disease activity [4]: reduce the number of lesions detected by magnetic resonance imaging (MRI) and clinical disease activity
induction of lymphopenia (PLL) [5]: rapidly and reversibly induce lymphopenia
migration of infected dendritic cells to the mediastinal lymph node [6]: impair migration of dendritic cells infected with Francisella tularensis to the mediastinal lymph node
initiation of contact hypersensitivity (mice [7]): impair initiation of murine contact hypersensitivity (CHS)
ocular infiltrates [8]: rapidly reduced ocular infiltrates
development of EAMG (C57BL/6 mice [9]): completely prevented the development of experimental autoimmune myasthenia gravis (EAMG)
VEGF-induced vascular permeability (mice [10]): potently blocked VEGF-induced vascular permeability
ovariectomy-induced osteoporosis (mice [11]): relieved ovariectomy-induced osteoporosis
nociceptive behavior [12]: reduce the nociceptive behavior
